In article PMC6054458 (Molecular cancer therapeutics, 2017):

Biological target: MDM2 (Homo sapiens, UniProt Q00987)
Assay: ITC
Format: binding

Chain of MDM2 (Q00987 428-491 limits assumed): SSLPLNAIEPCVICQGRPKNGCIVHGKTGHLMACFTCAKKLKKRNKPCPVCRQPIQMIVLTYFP

## O=C(CCl)Nc1cc(O)c2c(c1)C(=O)c1cccc(O)c1C2=O [AQ-101]
  Kd: 370 nM
